Test results taken from ChEMBL document CHEMBL5584317, “Acroamine A, a 2-Amino Adenine Alkaloid from the Marine Soft Coral Acrozoanthus australiae and Its Semisynthetic Derivatives That Inhibit cAMP-Dependent Protein Kinase A Catalytic Subunit Alpha” (J Nat Prod, 2024).
Activity calls are given as the source filed them. The calls are words filed in the database; no cut-off is given here.

Tests used:
[1] = target: T1, cAMP-dependent protein kinase catalytic subunit alpha (Homo sapiens, UniProt P17612); assay: Inhibition of PKAcalpha (unknown origin) using CREB KRREILSRRPSYR-biotinylated peptide as substrate incubated for 45 mins in presence of ATP by ELISA
[2] = Inhibition of DNAJB1-[…] gene fusion of J-PKAc alpha chimeric protein (unknown origin) using CREB KRREILSRRPSYR-biotinylated peptide as substrate incubated for 45 mins in presence of ATP by ELISA; parameters: species or system Homo sapiens
[3] = species on record: Homo sapiens; assay: Inhibition of DNAJB1-[…] gene fusion of J-PKAc alpha chimeric protein (unknown origin) at 10 uM using CREB KRREILSRRPSYR-biotinylated peptide as substrate incubated for 45 mins in presence of 25 to 250 uM ATP by ELISA
[4] = target: T1, cAMP-dependent protein kinase catalytic subunit alpha; assay: Inhibition of PKAcalpha (unknown origin) up to 200 uM using CREB KRREILSRRPSYR-biotinylated peptide as substrate incubated for 45 mins in presence of ATP by ELISA
[5] = species on record: Homo sapiens; assay: Inhibition of DNAJB1-[…] gene fusion of J-PKAc alpha chimeric protein (unknown origin) up to 200 uM using CREB KRREILSRRPSYR-biotinylated peptide as substrate incubated for 45 mins in presence of ATP by ELISA
[6] = target: T1, cAMP-dependent protein kinase catalytic subunit alpha; assay: Potency index, ratio of IC50 for acroamine A to IC50 for test compound for inhibition PKAcalpha (unknown origin) using CREB KRREILSRRPSYR-biotinylated peptide as substrate incubated for 45 mins in presence of ATP by ELISA
[7] = species on record: Homo sapiens; assay: Potency index, ratio of IC50 for acroamine A to IC50 for test compound for inhibition of DNAJB1-[…] gene fusion of J-PKAc alpha chimeric protein (unknown origin) using CREB KRREILSRRPSYR-biotinylated peptide as substrate incubated for 45 mins in presence of ATP by ELISA
[8] = species on record: Homo sapiens; assay: Inhibition of DNAJB1-[…] gene fusion of J-PKAc alpha chimeric protein (unknown origin) at 2 uM using CREB KRREILSRRPSYR-biotinylated peptide as substrate incubated for 45 mins in presence of 25 to 250 uM ATP by ELISA

SMILES	IC50 [1] [µM]	IC50 [2] [µM]	inhibition [4]	inhibition [5]	other results
Nc1nc(NCCc2nc(Br)[nH]c2Br)c2nc[nH]c2n1	5.7	8.9			inhibition [3]: inactive
Cn1cc(CCNc2n/c(=N\C=[N+](C)C)n(C)c3ncn(C)c23)[n+](C)c1			inactive	inactive	
Nc1nc(NCCc2nc(Br)[nH]c2Br)c2nc(Br)[nH]c2n1	2.4	2.5			Ratio IC50 [6]: 19; Ratio IC50 [7]: 19; inhibition [8]: inactive
C/N=c1\nc(NCCc2cn(C)c[n+]2C)c2c(ncn2C)n1C			inactive	inactive	
Nc1nc(NCCc2c[nH]cn2)c2nc[nH]c2n1	29	47			
Nc1nc(NCCc2nc[nH]c2Br)c2nc[nH]c2n1	11.6	11.5			inhibition [3]: inactive
Cn1cc(CCNc2nc(=N)n(C)c3ncn(C)c23)[n+](C)c1			inactive	inactive	
CN(C)c1nc(NCCc2cn(C)c[n+]2C)c2c(n1)[n+](C)cn2C			inactive	inactive	
C/N=c1\nc(N(C)CCc2cn(C)c[n+]2C)c2c(ncn2C)n1C			inactive	inactive	
